Test results as given in US7029879B1, “Iodine uptake restoration in thyroid cancer” (University of Kentucky Research Foundation, priority 1999, dated 2006).

Legend:
[1] = system: TTF-1 expression and thyroglobulin promoter activity; details: transformed rat thyroid cell line (activated RAS oncogene); cited from earlier work
[2] = system: KAT-10 cells; experiment: Lethality of culture additive in cell culture; format: cell-based, human; details: AzaC high, 1.0 μM
Procedure: (§1) Cell lines, for evaluation of iodide-uptake and hNIS expression, were grown in phenol-red-free RPMI 1640 with 5% fetal bovine serum (FBS), 100 nM sodium selenite and 0.1 nM bovine TSH (basal medium) (20). They were plated at a density of 3–5×10^4 cells/9.4 cm^2, in triplicate in basal medium, and grown for 2–3 days at 37° C. in 5% CO2. They were treated with dimethylsulfoxide (DMSO, 25 μM daily for 3 days), sodium butyrate (0.5 or 1.0 mM), phenylacetate (pH 7.0, 5 or 10 mM) or 5-azacytidine (0.5 or 1.0 μM, in 25 μM DMSO, daily for 3 days) until control cells were 80% confluent (3–4 days), then changed to fresh basal medium and grown for an additional 24 hrs.

[3] = system: NPA'87 cells (papillary carcinoma); experiment: Iodide uptake assay (specific 125I uptake), NPA'87; format: cell-based, human; details: for Specific ^125I Uptake: NPA'87
Procedure: as §1
Cell lines, treated with differentiation agents and control cultures, were washed with 2 mL of buffer containing: 10 mM HEPES ([…]), 5.5 mM glucose, 5.4 mM KCl, 1.3 mM CaCl2, 0.4 mM Na2HPO4, 0.44 mM KH2PO4, and either 137 mM NaCl (Buffer A) or 100 mM choline chloride (Buffer B). After a 60 min incubation in the same buffer supplemented with Na(^125I) (1.0 μCi/2 mL) and 1.0 μM NaI, cells were washed once with Buffer A, lysed with 0.1 M NaOH and gamma counted (5). A parallel set of dishes, similarly plated and treated, were used for normalization of uptake activity, using 3-(4,5-dimethylthiazol-2-yl)-2,5-diphenyltetrazolium bromide (MTT) assay (25) as an index of cell viability. Gamma counts of cells incubated in Buffer B were subtracted from counts of cells incubated in Buffer A, under corresponding conditions, to account for non-specific binding of radioiodide.

[4] = high: AzaC 1.0 μM, NaB 1.0 mM, PhAc 10 mM
[5] = low: AzaC 0.5 μM, NaB 0.5 mM, PhAc 5.0 mM

Row | Compound | TTF-1 expression [1] | thyroglobulin promoter activity [1] | Lethality of additive concentration for the cell line [2] | Specific ^125I Uptake [3, 4] | Specific ^125I Uptake [3, 5] | increased iodide uptake ([3]; NPA'87 cells, 1.0 M 5-azacytidine (so in the source)) | iodide uptake activity ([3]; NPA'87 cells, 1.0 mM sodium butyrate)
1 | Nc1ncn([C@@H]2O[C@H](CO)[C@@H](O)[C@H]2O)c(=O)n1 [AzaC, 5-azacytidine] | restored | restored | Lethal additive concentration for this cell line | + | − | over 15 fold | 
2 | CCCC(=O)[O-].[Na+] [NaB, sodium butyrate] |  |  |  | − | − |  | slightly increased
